Laboratory results from patent US20240218022A1, “ANTI-VISTA MACROCYCLIC PEPTIDES AND COMPOSITIONS” (BRISTOL-MYERS SQUIBB COMPANY, priority 2022, published 2024).
Positions of bridges follow the written chain, without caps; N, C: chain ends. Non-standard residues stand in square brackets, D forms with d. Residues, ends and D or L forms follow the SMILES beside them. ξ: configuration not given here. 2Nal = N[C@@H](Cc1ccc2ccccc2c1)C(=O)O; NMeIle(3ξ) = CCC(C)[C@H](NC)C(=O)O; Cit = NC(=O)NCCC[C@H](N)C(=O)O; Gly(cPr) = N[C@H](C(=O)O)C1CC1; NMeD = CN[C@@H](CC(=O)O)C(=O)O; NMeN = CN[C@@H](CC(N)=O)C(=O)O; NMeL = CN[C@@H](CC(C)C)C(=O)O; Ahp(2) = CCCCC[C@H](N)C(=O)O; NMeNle = CCCC[C@H](NC)C(=O)O; NHexGly = CCCCCCNCC(=O)O; Nle = CCCC[C@H](N)C(=O)O; Orn = NCCC[C@H](N)C(=O)O

Target: T1, mouse VISTA (mVISTA) (Mus musculus, UniProt Q9D659)
T1 construct: expressed in transfected cells; host or cells: Human embryonic kidney 293T cells
T1 sequence (Q9D659 33-308): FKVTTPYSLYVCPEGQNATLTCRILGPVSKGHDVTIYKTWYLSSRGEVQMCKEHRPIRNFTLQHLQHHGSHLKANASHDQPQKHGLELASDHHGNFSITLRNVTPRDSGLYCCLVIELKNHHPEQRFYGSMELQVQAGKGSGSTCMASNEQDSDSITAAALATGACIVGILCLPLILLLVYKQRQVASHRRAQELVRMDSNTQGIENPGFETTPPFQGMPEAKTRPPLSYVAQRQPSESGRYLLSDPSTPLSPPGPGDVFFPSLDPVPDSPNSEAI
Assay: Cell-Based Binding High-Content Assay For mVISTA (HC CBA mVISTA)
Details: cell-based binding high-content assay, mVISTA; the 15th table; read-out: HC CBA mVISTA IC50
How it was run: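 Competition of compound with a biotinylated peptide (final 2 nM, 30 min at RT) for binding to mVISTA on 293T cells, run under no-wash or wash (1 h compound preincubation then removal) formats. Readout by Alexa 647–streptavidin imaging on a high-content platform; four-parameter logistic fit gave IC50.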

| IC50 [nM] | SMILES |
| --- | --- |
| 36 | CCCCCCN1CC(=O)N[C@@H](Cc2ccc(O)cc2)C(=O)N[C@@H](CCCC)C(=O)N[C@@H](CC(N)=O)C(=O)N[C@@H](CCCNC(=N)N)C(=O)N[C@@H](CC(C)C)C(=O)N[C@@H](CCCCC)C(=O)N2CCC[C@H]2C(=O)N[C@@H](C(C)C)C(=O)N[C@@H](C2CC2)C(=O)N[C@H](C(=O)NCC(=O)O)CSCC(=O)N[C@@H](Cc2ccc3ccccc3c2)C(=O)N[C@@H](Cc2c[nH]c3ccccc23)C(=O)N[C@@H](CC(=O)O)C1=O [compound 1232] ({CH2CO}-[2Nal]WD[NHexGly]Y[Nle]NRL[Ahp(2)]PV[Gly(cPr)]CG-OH; thioether N-14) |
| 10.5 | CCCCCCN1CC(=O)N[C@@H](Cc2ccc(O)cc2)C(=O)N[C@@H](CCCC)C(=O)N[C@@H](CC(N)=O)C(=O)N[C@@H](CCCNC(N)=O)C(=O)N[C@@H](CC(C)C)C(=O)N[C@@H](CCCCC)C(=O)N2CCC[C@H]2C(=O)N[C@@H](C(C)C)C(=O)N[C@@H](CC(=O)O)C(=O)N[C@H](C(=O)NCC(=O)O)CSCC(=O)N[C@@H](Cc2ccc3ccccc3c2)C(=O)N[C@@H](Cc2c[nH]c3ccccc23)C(=O)N[C@@H](CC(=O)O)C1=O [compound 1233] ({CH2CO}-[2Nal]WD[NHexGly]Y[Nle]N[Cit]L[Ahp(2)]PVDCG-OH; thioether N-14) |
| 13.4 | CCCCCCN1CC(=O)N[C@@H](Cc2ccc(O)cc2)C(=O)N[C@@H](CCCC)C(=O)N[C@@H](CC(=O)O)C(=O)N[C@@H](CCCNC(=N)N)C(=O)N[C@@H](CC(C)C)C(=O)N[C@@H](CCCCC)C(=O)N2CCC[C@H]2C(=O)N[C@@H](C(C)C)C(=O)N[C@@H](CC(=O)O)C(=O)N[C@H](C(=O)N[C@@H](CO)C(N)=O)CSCC(=O)N[C@@H](Cc2ccc3ccccc3c2)C(=O)N[C@@H](Cc2c[nH]c3ccccc23)C(=O)N[C@@H](CC(=O)O)C1=O [compound 1235] ({CH2CO}-[2Nal]WD[NHexGly]Y[Nle]DRL[Ahp(2)]PVDCS-NH2; thioether N-14) |
| 27.7 | CCCCCCN1CC(=O)N[C@@H](Cc2ccc(O)cc2)C(=O)N[C@@H](CCCC)C(=O)N[C@@H](CC(=O)O)C(=O)N[C@@H](CCCN)C(=O)N[C@@H](CC(C)C)C(=O)N[C@@H](CCCCC)C(=O)N2CCC[C@H]2C(=O)N[C@@H](C(C)C)C(=O)N[C@@H](CC(=O)O)C(=O)N[C@H](C(=O)N[C@@H](CO)C(N)=O)CSCC(=O)N[C@@H](Cc2ccc3ccccc3c2)C(=O)N[C@@H](Cc2c[nH]c3ccccc23)C(=O)N[C@@H](CC(=O)O)C1=O [compound 1236] ({CH2CO}-[2Nal]WD[NHexGly]Y[Nle]D[Orn]L[Ahp(2)]PVDCS-NH2; thioether N-14) |
| 9.1 | CCCCCCN1CC(=O)N[C@@H](Cc2ccc(O)cc2)C(=O)N[C@@H](CCCC)C(=O)N[C@@H](CC(N)=O)C(=O)N[C@@H](CCCNC(=N)N)C(=O)N(C)[C@@H](C(C)CC)C(=O)N[C@@H](CCCCC)C(=O)N2CCC[C@H]2C(=O)N[C@@H](C(C)C)C(=O)N[C@@H](CC(=O)O)C(=O)N[C@H](C(=O)NCC(=O)O)CSCC(=O)N[C@@H](Cc2ccc3ccccc3c2)C(=O)N[C@@H](Cc2c[nH]c3ccccc23)C(=O)N[C@@H](CC(=O)O)C1=O (stereo partly drawn) [compound 1237] ({CH2CO}-[2Nal]WD[NHexGly]Y[Nle]NR[NMeIle(3ξ)][Ahp(2)]PVDCG-OH; thioether N-14) |
| 25.2 | CCCCCCN1CC(=O)N[C@@H](Cc2ccc(O)cc2)C(=O)N[C@@H](CCCC)C(=O)N[C@@H](CC(N)=O)C(=O)N[C@@H](CCCNC(=N)N)C(=O)N(C)[C@@H](CC(=O)O)C(=O)N[C@@H](CCCCC)C(=O)N2CCC[C@H]2C(=O)N[C@@H](C(C)C)C(=O)N[C@@H](CC(=O)O)C(=O)N[C@H](C(=O)NCC(=O)O)CSCC(=O)N[C@@H](Cc2ccc3ccccc3c2)C(=O)N[C@@H](Cc2c[nH]c3ccccc23)C(=O)N[C@@H](CC(=O)O)C1=O [compound 1238] ({CH2CO}-[2Nal]WD[NHexGly]Y[Nle]NR[NMeD][Ahp(2)]PVDCG-OH; thioether N-14) |
| 3.2 | CCCCCCN1CC(=O)N[C@@H](Cc2ccc(O)cc2)C(=O)N[C@@H](CCCC)C(=O)N[C@@H](CC(N)=O)C(=O)N[C@@H](CCCNC(=N)N)C(=O)N(C)[C@@H](CC(C)C)C(=O)N[C@@H](CCCCC)C(=O)N2CCC[C@H]2C(=O)N[C@@H](C(C)C)C(=O)N[C@@H](CC(=O)O)C(=O)N[C@H](C(=O)NCC(=O)O)CSCC(=O)N[C@@H](Cc2ccc3ccccc3c2)C(=O)N[C@@H](Cc2c[nH]c3ccccc23)C(=O)N[C@@H](CC(=O)O)C1=O [compound 1239] ({CH2CO}-[2Nal]WD[NHexGly]Y[Nle]NR[NMeL][Ahp(2)]PVDCG-OH; thioether N-14) |
| 14.4 | CCCCCCN1CC(=O)N[C@@H](Cc2ccc(O)cc2)C(=O)N[C@@H](CCCC)C(=O)N[C@@H](CC(N)=O)C(=O)N[C@@H](CCCNC(=N)N)C(=O)N(C)[C@@H](CC(C)C)C(=O)N[C@@H](CCCCC)C(=O)N2CCC[C@H]2C(=O)N[C@@H](C(C)C)C(=O)N[C@@H](CC(=O)O)C(=O)N[C@H](C(=O)N[C@@H](CO)C(=O)O)CSCC(=O)N[C@@H](Cc2ccc3ccccc3c2)C(=O)N[C@@H](Cc2c[nH]c3ccccc23)C(=O)N[C@@H](CC(=O)O)C1=O [compound 1240] ({CH2CO}-[2Nal]WD[NHexGly]Y[Nle]NR[NMeL][Ahp(2)]PVDCS-OH; thioether N-14) |
| 35.1 | CCCCCCN1CC(=O)N[C@@H](Cc2ccc(O)cc2)C(=O)N[C@@H](CCCC)C(=O)N[C@@H](CC(N)=O)C(=O)N[C@@H](CCCNC(=N)N)C(=O)N(C)[C@@H](CC(N)=O)C(=O)N[C@@H](CCCCC)C(=O)N2CCC[C@H]2C(=O)N[C@@H](C(C)C)C(=O)N[C@@H](CC(=O)O)C(=O)N[C@H](C(=O)NCC(=O)O)CSCC(=O)N[C@@H](Cc2ccc3ccccc3c2)C(=O)N[C@@H](Cc2c[nH]c3ccccc23)C(=O)N[C@@H](CC(=O)O)C1=O [compound 1241] ({CH2CO}-[2Nal]WD[NHexGly]Y[Nle]NR[NMeN][Ahp(2)]PVDCG-OH; thioether N-14) |
| 8.9 | CCCCCCN1CC(=O)N[C@@H](Cc2ccc(O)cc2)C(=O)N[C@@H](CCCC)C(=O)N[C@@H](CC(=O)O)C(=O)N[C@@H](CCCNC(N)=O)C(=O)N(C)[C@@H](CCCC)C(=O)N[C@@H](CCCCC)C(=O)N2CCC[C@H]2C(=O)N[C@@H](C(C)C)C(=O)N[C@@H](CC(=O)O)C(=O)N[C@H](C(=O)N[C@@H](CC(=O)O)C(N)=O)CSCC(=O)N[C@@H](Cc2ccc3ccccc3c2)C(=O)N[C@@H](Cc2c[nH]c3ccccc23)C(=O)N[C@@H](CC(=O)O)C1=O [compound 1242] ({CH2CO}-[2Nal]WD[NHexGly]Y[Nle]D[Cit][NMeNle][Ahp(2)]PVDCD-NH2; thioether N-14) |
| 20.1 | CCCCCCN1CC(=O)N[C@@H](Cc2ccc(O)cc2)C(=O)N[C@@H](CCCC)C(=O)N[C@@H](CC(=O)O)C(=O)N[C@@H](CCCNC(=N)N)C(=O)N(C)[C@@H](CCCC)C(=O)N[C@@H](CCCCC)C(=O)N2CCC[C@H]2C(=O)N[C@@H](C(C)C)C(=O)N[C@@H](CC(=O)O)C(=O)N[C@H](C(=O)N[C@@H](CC(=O)O)C(N)=O)CSCC(=O)N[C@@H](Cc2ccc3ccccc3c2)C(=O)N[C@@H](Cc2c[nH]c3ccccc23)C(=O)N[C@@H](CC(=O)O)C1=O [compound 1243] ({CH2CO}-[2Nal]WD[NHexGly]Y[Nle]DR[NMeNle][Ahp(2)]PVDCD-NH2; thioether N-14) |
| 13.5 | CCCCCCN1CC(=O)N[C@@H](Cc2ccc(O)cc2)C(=O)N[C@@H](CCCC)C(=O)N[C@@H](CC(=O)O)C(=O)N[C@@H](CCCN)C(=O)N(C)[C@@H](CCCC)C(=O)N[C@@H](CCCCC)C(=O)N2CCC[C@H]2C(=O)N[C@@H](C(C)C)C(=O)N[C@@H](CC(=O)O)C(=O)N[C@H](C(=O)N[C@@H](CC(=O)O)C(N)=O)CSCC(=O)N[C@@H](Cc2ccc3ccccc3c2)C(=O)N[C@@H](Cc2c[nH]c3ccccc23)C(=O)N[C@@H](CC(=O)O)C1=O [compound 1244] ({CH2CO}-[2Nal]WD[NHexGly]Y[Nle]D[Orn][NMeNle][Ahp(2)]PVDCD-NH2; thioether N-14) |
| 6.2 | CCCCCCN1CC(=O)N[C@@H](Cc2ccc(O)cc2)C(=O)N[C@@H](CCCC)C(=O)N[C@@H](CC(N)=O)C(=O)N[C@@H](CCCNC(=N)N)C(=O)N(C)[C@@H](CCCC)C(=O)N[C@@H](CCCCC)C(=O)N2CCC[C@H]2C(=O)N[C@@H](C(C)C)C(=O)N[C@@H](CC(=O)O)C(=O)N[C@H](C(=O)NCC(=O)O)CSCC(=O)N[C@@H](Cc2ccc3ccccc3c2)C(=O)N[C@@H](Cc2c[nH]c3ccccc23)C(=O)N[C@@H](CC(=O)O)C1=O [compound 1245] ({CH2CO}-[2Nal]WD[NHexGly]Y[Nle]NR[NMeNle][Ahp(2)]PVDCG-OH; thioether N-14) |
| 25.1 | CCCCCCN1CC(=O)N[C@@H](Cc2ccc(O)cc2)C(=O)N[C@@H](CCCC)C(=O)N[C@@H](CC(N)=O)C(=O)N[C@@H](CCCNC(=N)N)C(=O)N(C)[C@@H](CCCC)C(=O)N[C@@H](CCCCC)C(=O)N2CCC[C@H]2C(=O)N[C@@H](C(C)C)C(=O)N[C@@H](CCCNC(=N)N)C(=O)N[C@H](C(=O)NCC(=O)O)CSCC(=O)N[C@@H](Cc2ccc3ccccc3c2)C(=O)N[C@@H](Cc2c[nH]c3ccccc23)C(=O)N[C@@H](CC(=O)O)C1=O [compound 1246] ({CH2CO}-[2Nal]WD[NHexGly]Y[Nle]NR[NMeNle][Ahp(2)]PVRCG-OH; thioether N-14) |
| 35.2 | CCCCCCN1CC(=O)N[C@@H](Cc2ccc(O)cc2)C(=O)N[C@@H](CCCC)C(=O)N[C@@H](CC(N)=O)C(=O)N[C@@H](CCCNC(=N)N)C(=O)N(C)[C@@H](CCCC)C(=O)N[C@@H](CCCCC)C(=O)N2CCC[C@H]2C(=O)N[C@@H](C(C)C)C(=O)N[C@@H](CO)C(=O)N[C@H](C(=O)NCC(=O)O)CSCC(=O)N[C@@H](Cc2ccc3ccccc3c2)C(=O)N[C@@H](Cc2c[nH]c3ccccc23)C(=O)N[C@@H](CC(=O)O)C1=O [compound 1247] ({CH2CO}-[2Nal]WD[NHexGly]Y[Nle]NR[NMeNle][Ahp(2)]PVSCG-OH; thioether N-14) |
